Experimental findings from patent US20200323802A1, “SUPPORTING IMMUNOMODULATORY AGENT” (Flexopharm Brain GMBH & Go. KG, priority 2015, published 2020) are described below.

Entries after “also recorded” stand apart in the source; their conditions may differ.

For experiment [1], the system named is Treg cells. Briefly: Treg cells in MS patients before and after 14 days of treatment with sodium propionate plus MS drug. In kind it is in vivo, human. The following applies: pooled comparison group, patient-specific dose of the MS drug together with sodium propionate 2×0.5 g daily, before vs after 14 days, FIG. 6. From the text: The disproportionate increase in the amount of Treg cells signifies a corresponding reduction in the autoimmune response.

Experiment [2] concerns experimental autoimmune encephalomyelitis (EAE). Put plainly: EAE mouse model, daily clinical assessment on 5-point scale (SEM). In kind it is in vivo. As to the method: (§1) Mice kept under standardized conditions were fed on a normal diet enriched with long-chain fatty acids (30.9% lauric acid) and with 200 μl of propionate daily administered orally. The propionate was given either at the time of disease induction (DI) or at the onset of the disease (OD).
(§2) For the induction of EAE the mice were anesthetized and administered two subcutaneous injections of a 50 μl emulsion applied to the left and right tail basis and comprising a total of 200 μg MOG35-55 (myelin oligodendrocyte glycoprotein) and 200 μg Freund's adjuvant (CFA) with 4 mg/ml of M. tuberculosis. Pertussis toxin ([…]) was given intraperitoneally on day 0 and day 2 after the induction. The clinical assessment took place on a daily basis using a 5-point scale (SEM). The assessment was as follows:
0=normal 1=Tail paralysis impairing raising 2=Gait ataxia 3=Paraparesis of hind legs
Mice showing SEM 4 or 5 were excluded.

Experiment [3] shares this test system. Briefly: EAE mouse model: relative axonal density, demyelination of the white matter, CD3+ cells. It is filed as in vivo. The settings on record: propionic acid (DI or OD), FIG. 3. Here is the method:
FIG. 3: is a graph showing the effect of propionic acid diet initiated at the time of disease induction (DI) or at the time of onset of symptoms (OD) compared to a diet control group on relative axonal density, demyelination in the white matter, and CD3+ cells in the mouse EAE model.
as §1, §2
The influence of the propionic acid on the relative axonal density, the demyelination of the white matter, and the number of CD3+-cells is shown in FIG. 3.

For experiment [4], the system named is IL-10. Put plainly: Gene expression profiling of signature cytokines in EAE mice. The settings on record: propionic acid-fed mice with EAE. It is filed as in vivo, mouse. An excerpt:
(§3) In mice treated with propionic acid, the number of regulatory T cells increases with the changes that occur in the microbiota (CD4+CD25+ Foxp3+ Treg).

Experiment [5] relates to TGFβ1. Described as above. The settings on record: propionic acid-fed mice with EAE. In kind it is in vivo, mouse.
Excerpt: as §3

In experiment [6] the test system is Foxp3. The description is as above. It is filed as in vivo, mouse. The settings on record: propionic acid-fed mice with EAE.
Excerpt: as §3

The subject of experiment [7] is CD4+CD25+ Foxp3+ Treg. Briefly: Levels of CD4+CD25+ Foxp3 regulatory T cells in mouse EAE model. It is filed as in vivo. Here is the method: FIG. 4: is a graph showing the effect of propionic acid diet initiated at the time of disease induction (DI) compared to a control group on levels of CD4+CD25+ Foxp3 cells in mouse EAE model
FIG. 5 is a graph showing the effect of lauric acid diet (250 μM and 500 μM) initiated at the time of disease induction (DI) compared to a control group on levels of CD4+CD25+ Foxp3 cells in mouse EAE model,
as §1
For the induction of EAE the mice were anesthetized and administered two subcutaneous injections of a 50 μl emulsion applied to the left and right tail basis and comprising a total of 200 μg MOG35-55 (myelin oligodendrocyte glycoprotein) and 200 μg Freund's adjuvant (CFA) with 4 mg/ml of M. tuberculosis. Pertussis toxin ([…]) was given intraperitoneally on day 0 and day 2 after the induction. The clinical assessment took place on a daily basis using a 5-point scale (SEM).

For experiment [8], the system named is TH1 and TH17 cells. Put plainly: Th1/Th17 cells in small bowel and central nervous system in EAE mice. It is filed as in vivo. The following applies: mouse EAE, lauric acid enriched diet. An excerpt: Moreover, the aliphatic chain length of the carboxylic acids also affects the […] autoimmunity as well as the regulatory response of Treg in an in vivo mouse model. […] In this context, MS and psoriasis are to be regarded as largely similar.

Experiment [9] deals with intestinal microbiome. Briefly: Influence on composition of the intestinal microbiome. It is filed as in vivo. The settings on record: present in mice. From the text: The inventive acids, in particular propionic acid and butyric acid have an influence on the intestinal physiology and the microbiome present there. In this way, they have an impact on the composition of the microbiome.

Regarding `C/C(O)=C(\C#N)C(=O)Nc1ccc(C(F)(F)F)cc1` [teriflunomide], in [1], the “increase in number of Treg cells by a factor” value (shortened to “increase in number”) is listed as 1.1.
For `CCC(=O)O` [propionic acid], the “course of induced disease versus control group” value in experiment [2] (MS mouse model (EAE), propionic acid given prophylactically) was “significant improvement”. The “disease progression (SEM) versus control group” value in experiment [2] (mouse EAE, propionic acid given orally on the day of onset of disease (OD), FIG. 2) is reported as “significantly less favorable disease progression than the control group”. Besides, the “relative axonal density, demyelination of the white matter and number of CD3+ cells versus control group” value in experiment [3] is reported as “significant improvement”. Moreover, in experiment [4], the IL-10 gene expression result is “increased values; also recorded: significant increase”. The TGFβ1 gene expression result in [5] was “increased values; also recorded: significant increase”. Besides, the Foxp3 gene expression entry in experiment [6] is reported as “increased values; also recorded: significant increase”. Further, the “CD4+CD25+ Foxp3 cells versus control group” value in [7] (propionic acid administration (DI), FIG. 4) is “increases; also recorded: significant increase”.
In the case of `CCCCCCCCCCCC(=O)O` [lauric acid], in [8], the “TH1 and TH17 cells in the small bowel” value is recorded as “significant reduction”; the “Th1/Th17 in the central nervous system” value is “accumulation”. Moreover, in experiment [7] (lauric acid enriched diet (250 μM and 500 μM), concentration dependent, FIG. 5), the “CD4+CD25+ Foxp3 cells versus control value” is “reduction”. Besides, the “number of Provotellaceae and some families of Phylum Bacteroidetes” value in experiment [9] is recorded as “reduce significantly”.
Regarding `CCCCCCCCc1ccc(CCC(N)(CO)CO)cc1` [fingolimod], the “increase in number” value in [1] was found to be 1.1.
Take glatiramer acetate: the “increase in number” value in [1] was 1.1.
